Experiment [1] addresses T1, GST-YAP (Homo sapiens, UniProt P46937).
T1 construct: gene YAP1
The experiment is described as follows: microscale thermophoresis. It is filed as binding. (In general: Microscale thermophoresis detects binding through changes in fluorescence in a small temperature gradient.)

For experiment [2], the target named is T1, GST-YAP. Kind of experiment: microscale thermophoresis. It is filed as binding. The note with it: pH 8.0, 50 mM NaCl, 80 mM KCl, 0.05% Tween-20; fluorescently labeled GST-YAP.

SMILES strings stand for the structures.

T1 sequence (P46937 whole entry): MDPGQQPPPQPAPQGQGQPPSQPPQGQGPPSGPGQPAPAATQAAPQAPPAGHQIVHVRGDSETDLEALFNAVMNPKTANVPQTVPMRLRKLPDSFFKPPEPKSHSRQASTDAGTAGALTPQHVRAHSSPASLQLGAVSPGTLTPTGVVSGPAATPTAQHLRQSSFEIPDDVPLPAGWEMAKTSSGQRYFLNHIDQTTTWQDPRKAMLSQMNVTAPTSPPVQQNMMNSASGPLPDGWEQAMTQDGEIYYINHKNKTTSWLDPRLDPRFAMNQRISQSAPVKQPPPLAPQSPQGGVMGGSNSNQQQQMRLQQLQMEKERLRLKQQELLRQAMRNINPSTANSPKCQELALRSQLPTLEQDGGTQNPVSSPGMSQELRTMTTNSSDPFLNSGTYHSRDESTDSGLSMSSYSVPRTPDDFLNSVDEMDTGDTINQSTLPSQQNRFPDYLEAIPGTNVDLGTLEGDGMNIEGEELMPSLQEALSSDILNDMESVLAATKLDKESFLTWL

In turn, `CCCCC/C=C\C/C=C\C/C=C\C/C=C\CCCC(=O)O[C@H](COC(=O)CCCCCCCCCCCCCCCCC)COP(=O)(O)O[C@@H]1[C@H](O)[C@H](O)[C@@H](OP(=O)(O)O)[C@H](OP(=O)(O)O)[C@H]1O` [PI(4,5)P2] returned a Kd in experiment [1] of 166 ± 13.5 nM.

As for `CCCCC/C=C\C/C=C\C/C=C\C/C=C\CCCC(=O)O[C@H](COC(=O)CCCCCCCCCCCCCCCCC)COP(=O)(O)O[C@@H]1[C@H](O)[C@H](O)[C@@H](O)[C@H](O)[C@H]1O` [PI], in experiment [2], the binding result is recorded as “No significant binding of GST-YAP with PI was detected”.

`CCCCC/C=C\C/C=C\C/C=C\C/C=C\CCCC(=O)O[C@H](COC(=O)CCCCCCCCCCCCCCCCC)COP(=O)(O)O[C@H]1[C@H](O)[C@@H](OP(=O)(O)O)[C@H](OP(=O)(O)O)[C@@H](OP(=O)(O)O)[C@H]1O` [PI(3,4,5)P3]: binding in experiment [1] was characterised by a dissociation constant (Kd) of 8.13 ± 2.63 nM.

What is called Kd is the constant that tells how readily two partners part at equilibrium.

These data come from paper PMC11066040, “Nuclear phosphoinositide signaling promotes YAP/TAZ-TEAD transcriptional activity in breast cancer” (The EMBO Journal, 2024).
